Assay results as given in US9409905B2, “Antibacterial compounds and methods for use” (PTC THERAPEUTICS, INC., priority 2011, dated 2016).
Converted amounts (≈) assume the structure as drawn.

Experiments:
[1] = system: Pseudomonas aeruginosa (P. aeruginosa) 27853; assay: Antibacterial activity, MIC (Table 5); type: cell-based; settings: P. aeruginosa 27853, read-out: MIC, 27853
Procedure, shortened: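 Using a microbroth dilution format, the minimum inhibitory concentration was recorded as the lowest tested concentration that stopped visible bacterial growth, expressed in μg/mL.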

[2] = system: Escherichia coli (E. coli) BAS849; assay: Antibacterial activity, microbroth dilution MIC (Table 1); type: cell-based; settings: microbroth dilution, super sensitive Gram-negative E. coli BAS849, read-out: MIC, BAS849
Procedure, shortened: (§1)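 Using broth microdilution, MIC endpoints (μg/mL) mark where visible growth no longer appears; the panel spans sensitive and control Gram-negative strains plus a Gram-positive strain.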

[3] = system: Staphylococcus aureus (S. aureus) 29213; assay: as above; type: cell-based; settings: microbroth dilution, Gram-positive S. aureus 29213, read-out: MIC, 29213
Procedure, shortened: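 MIC (μg/mL) is taken as the lowest concentration with no macroscopically visible growth. Strains tested by microbroth dilution: Gram-positive S. aureus 29213, control Gram-negative E. coli 25922, and super-sensitive E. coli BAS849.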

E. coli 25922 = assay: as above; type: cell-based, Escherichia coli; settings: Escherichia coli; microbroth dilution; control Gram-negative E. coli 25922 strain; read-out: MIC, 25922
Procedure, shortened: as §1

E. coli LZ3111 = assay: Antibacterial activity, MIC, quinolone resistant strain (Table 2); type: cell-based; settings: Escherichia coli, LZ3111, read-out: MIC LZ3111
Procedure, shortened: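 Growth inhibition assessed by serial drug dilution in broth; endpoint was absence of macroscopically visible growth, reported as MIC, μg/mL.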

A. baumannii MXX2240 = assay: Antibacterial activity, MIC, resistant strain (Table 4); type: cell-based; settings: Acinetobacter baumannii, MXX2240; resistant A. baumannii MMX2240, multi-drug resistant clinical isolate; read-out: MIC, MMX2240
Procedure, shortened: (§2)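 Broth microdilution; MIC (μg/mL) = lowest concentration with no macroscopically visible growth. Resistant strains: multi-drug resistant clinical isolates.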

K. pneumoniae MXX1232 = assay: as above; type: cell-based; settings: Klebsiella pneumoniae, MXX1232; resistant K. pneumoniae MMX1232, multi-drug resistant clinical isolate; read-out: MIC, MMX1232
Procedure, shortened: as §2

[4] = system: Acinetobacter baumannii (A. baumannii) BAA747; assay: Antibacterial activity, MIC (Table 4); type: cell-based; settings: A. baumannii BAA747, read-out: MIC, BAA747
Procedure, shortened: as §2

[5] = system: Klebsiella pneumoniae (K. pneumoniae) 35657; assay: Antibacterial activity, MIC (Table 4); type: cell-based; settings: K. pneumoniae 35657, read-out: MIC, 35657
Procedure, shortened: as §2

Structure (SMILES): CCc1c(-c2ccc3c(c2)cc2n3CC(NC)C2)[nH]c(=O)c(C(=O)O)c1O.Cl (stereo not drawn) [Cpd 416, 5-ethyl-4-hydroxy-6-(2-(methylamino)-2,3-dihydro-1H-pyrrolo[1,2-a]indol-7-yl)-2-oxo-1,2-dihydropyridine-3-carboxylic acid hydrochloride]
- MIC [1]: 12.5 to 150 mg/L
- MIC [2]: 3.5 to 12.5 mg/L
- MIC [3]: 12.5 to 150 mg/L
- MIC (E. coli 25922): 12.5 to 150 mg/L
- MIC (E. coli LZ3111): 12.5 to 150 mg/L
- MIC (A. baumannii MXX2240): 12.5 to 150 mg/L
- MIC (K. pneumoniae MXX1232): 12.5 to 150 mg/L
- MIC [4]: 12.5 to 150 mg/L
- MIC [5]: 12.5 to 150 mg/L

Structure (SMILES): Cc1c(-c2ccc3c(c2)cc2n3CC(N(C)C)C2)[nH]c(=O)c(C(=O)O)c1O.Cl (stereo not drawn) [Cpd 417, 6-(2-(dimethylamino)-2,3-dihydro-1H-pyrrolo[1,2-a]indol-7-yl)-4-hydroxy-5-methyl-2-oxo-1,2-dihydropyridine-3-carboxylic acid hydrochloride]
- MIC [1]: 12.5 to 150 mg/L
- MIC [2]: 1 to 3.5 mg/L
- MIC [3]: 12.5 to 150 mg/L
- MIC (E. coli 25922): 12.5 to 150 mg/L
- MIC (E. coli LZ3111): < 1 mg/L
- MIC (A. baumannii MXX2240): < 1 mg/L
- MIC (K. pneumoniae MXX1232): 12.5 to 150 mg/L
- MIC [4]: 3.5 to 12.5 mg/L
- MIC [5]: 12.5 to 150 mg/L

Structure (SMILES): CCc1c(-c2ccc3c(c2)cc2n3CC(N(C)C)C2)[nH]c(=O)c(C(=O)O)c1O.Cl (stereo not drawn) [Cpd 418, 6-(2-(dimethylamino)-2,3-dihydro-1H-pyrrolo[1,2-a]indol-7-yl)-5-ethyl-4-hydroxy-2-oxo-1,2-dihydropyridine-3-carboxylic acid hydrochloride]
- MIC [1]: 12.5 to 150 mg/L
- MIC [2]: 3.5 to 12.5 mg/L
- MIC [3]: 12.5 to 150 mg/L
- MIC (E. coli 25922): 3.5 to 12.5 mg/L
- MIC (E. coli LZ3111): < 1 mg/L
- MIC (A. baumannii MXX2240): 3.5 to 12.5 mg/L
- MIC (K. pneumoniae MXX1232): 12.5 to 150 mg/L
- MIC [4]: 3.5 to 12.5 mg/L
- MIC [5]: 3.5 to 12.5 mg/L

Structure (SMILES): CCc1c(-c2ccc3c(c2)cc2n3CC(N(C)CC)C2)[nH]c(=O)c(C(=O)O)c1O (stereo not drawn) [Cpd 419, 5-ethyl-6-(2-(ethyl(methyl)amino)-2,3-dihydro-1H-pyrrolo[1,2-a]indol-7-yl)-4-hydroxy-2-oxo-1,2-dihydropyridine-3-carboxylic acid]
- MIC [1]: 12.5 to 150 mg/L (≈ 31.6 to 379 µM)
- MIC [2]: < 1 mg/L
- MIC [3]: 3.5 to 12.5 mg/L (≈ 8.85 to 31.6 µM)
- MIC (E. coli 25922): 3.5 to 12.5 mg/L (≈ 8.85 to 31.6 µM)
- MIC (E. coli LZ3111): 1 to 3.5 mg/L (≈ 2.53 to 8.85 µM)
- MIC (A. baumannii MXX2240): 3.5 to 12.5 mg/L (≈ 8.85 to 31.6 µM)
- MIC (K. pneumoniae MXX1232): 12.5 to 150 mg/L (≈ 31.6 to 379 µM)
- MIC [4]: 3.5 to 12.5 mg/L (≈ 8.85 to 31.6 µM)
- MIC [5]: 3.5 to 12.5 mg/L (≈ 8.85 to 31.6 µM)

Structure (SMILES): CCCN(C)C1Cc2cc3cc(-c4[nH]c(=O)c(C(=O)O)c(O)c4CC)ccc3n2C1 (stereo not drawn) [Cpd 420, 5-ethyl-4-hydroxy-6-(2-(methyl(propyl)amino)-2,3-dihydro-1H-pyrrolo[1,2-a]indol-7-yl)-2-oxo-1,2-dihydropyridine-3-carboxylic acid]
- MIC [1]: 12.5 to 150 mg/L (≈ 30.5 to 366 µM)
- MIC [2]: < 1 mg/L
- MIC [3]: 3.5 to 12.5 mg/L (≈ 8.55 to 30.5 µM)
- MIC (E. coli 25922): 3.5 to 12.5 mg/L (≈ 8.55 to 30.5 µM)
- MIC (E. coli LZ3111): 3.5 to 12.5 mg/L (≈ 8.55 to 30.5 µM)
- MIC (A. baumannii MXX2240): 3.5 to 12.5 mg/L (≈ 8.55 to 30.5 µM)
- MIC (K. pneumoniae MXX1232): 12.5 to 150 mg/L (≈ 30.5 to 366 µM)
- MIC [4]: 12.5 to 150 mg/L (≈ 30.5 to 366 µM)
- MIC [5]: 12.5 to 150 mg/L (≈ 30.5 to 366 µM)

Structure (SMILES): Cc1c(-c2ccc3cc[nH]c3c2)[nH]c(=O)c(C(=O)O)c1O [Cpd 424, 4-hydroxy-6-(1H-indol-6-yl)-5-methyl-2-oxo-1,2-dihydropyridine-3-carboxylic acid]
- MIC [1]: 12.5 to 150 mg/L (≈ 44 to 528 µM)
- MIC [2]: 3.5 to 12.5 mg/L (≈ 12.3 to 44 µM)
- MIC [3]: 3.5 to 12.5 mg/L (≈ 12.3 to 44 µM)
- MIC (E. coli 25922): 12.5 to 150 mg/L (≈ 44 to 528 µM)
- MIC (E. coli LZ3111): < 1 mg/L
- MIC (A. baumannii MXX2240): < 1 mg/L
- MIC (K. pneumoniae MXX1232): 12.5 to 150 mg/L (≈ 44 to 528 µM)
- MIC [4]: 12.5 to 150 mg/L (≈ 44 to 528 µM)
- MIC [5]: 12.5 to 150 mg/L (≈ 44 to 528 µM)

Structure (SMILES): CCc1c(-c2ccc3[nH]ccc3c2)[nH]c(=O)c(C(=O)O)c1O [Cpd 425, 5-ethyl-4-hydroxy-6-(1H-indol-5-yl)-2-oxo-1,2-dihydropyridine-3-carboxylic acid]
- MIC [1]: 12.5 to 150 mg/L (≈ 41.9 to 503 µM)
- MIC [2]: < 1 mg/L
- MIC [3]: 3.5 to 12.5 mg/L (≈ 11.7 to 41.9 µM)
- MIC (E. coli 25922): 1 to 3.5 mg/L (≈ 3.35 to 11.7 µM)
- MIC (E. coli LZ3111): 1 to 3.5 mg/L (≈ 3.35 to 11.7 µM)
- MIC (A. baumannii MXX2240): < 1 mg/L
- MIC (K. pneumoniae MXX1232): 12.5 to 150 mg/L (≈ 41.9 to 503 µM)
- MIC [4]: 3.5 to 12.5 mg/L (≈ 11.7 to 41.9 µM)
- MIC [5]: 1 to 3.5 mg/L (≈ 3.35 to 11.7 µM)
